Data published in PubChem BioAssay AID1963849 (Molecular Pharmacology Branch, DTP, NCI, 2024).

System: 299254-011-R-J1-PDC complex spheroid viability
Assay: Anticancer human tumor 299254-011-R-J1-PDC patient-derived melanoma cell line growth inhibition [POLQ]
Conditions: for IC50: curve of first compound; for viability, T/C: stronger effect = lower value
Procedure, shortened: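 Three-cell-type spheroids modelling solid tumor plus stroma served as the readout system; POL inhibitors were tested individually and in combination, concentration ranges set by clinical Cmax where known.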

[1] = second compound 0.0316 µM, first compound 0.0316 µM
[2] = second compound 0.0316 µM, first compound 0.1 µM
[3] = second compound 0.0316 µM, first compound 0.316 µM
[4] = second compound 0.0316 µM, first compound 1 µM
[5] = second compound 0.0316 µM, first compound 3.16 µM
[6] = second compound 0.0316 µM, first compound 10 µM
[7] = second compound 0.1 µM, first compound 0.0316 µM
[8] = second compound 0.1 µM, first compound 0.1 µM
[9] = second compound 0.1 µM, first compound 0.316 µM
[10] = second compound 0.1 µM, first compound 1 µM
[11] = second compound 0.1 µM, first compound 3.16 µM
[12] = second compound 0.1 µM, first compound 10 µM
[13] = second compound 0.316 µM, first compound 0.0316 µM
[14] = second compound 0.316 µM, first compound 0.1 µM
[15] = second compound 0.316 µM, first compound 0.316 µM
[16] = second compound 0.316 µM, first compound 1 µM
[17] = second compound 0.316 µM, first compound 3.16 µM
[18] = second compound 0.316 µM, first compound 10 µM
[19] = second compound 1 µM, first compound 0.0316 µM
[20] = second compound 1 µM, first compound 0.1 µM
[21] = second compound 1 µM, first compound 0.316 µM
[22] = second compound 1 µM, first compound 1 µM
[23] = second compound 1 µM, first compound 3.16 µM
[24] = second compound 1 µM, first compound 10 µM
[25] = second compound 3.16 µM, first compound 0.0316 µM
[26] = second compound 3.16 µM, first compound 0.1 µM
[27] = second compound 3.16 µM, first compound 0.316 µM
[28] = second compound 3.16 µM, first compound 1 µM
[29] = second compound 3.16 µM, first compound 3.16 µM
[30] = second compound 3.16 µM, first compound 10 µM
[31] = second compound 10 µM, first compound 0.0316 µM
[32] = second compound 10 µM, first compound 0.1 µM
[33] = second compound 10 µM, first compound 0.316 µM
[34] = second compound 10 µM, first compound 1 µM
[35] = second compound 10 µM, first compound 3.16 µM
[36] = second compound 10 µM, first compound 10 µM
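Also: spheroids exposed to drugs for one week before measurement.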
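For viability, T/C in this document: percent viability relative to DMSO vehicle control taken as 100%.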

COc1ccc([C@@H](O)c2cc(-c3ncnc4cc(N5CCOCC5)ccc34)c(F)cc2Cl)nn1 + Nc1ccc(C#CCN(C(=O)Cc2ncc(C(F)(F)F)cc2C(F)(F)F)c2ccc(F)cc2)nn1
IC50 (second compound 0.0316 µM): > 10 µM
IC50 (second compound 0.1 µM): 9.37 µM
IC50 (second compound 0.316 µM): > 10 µM
IC50 (second compound 1 µM): 9 µM
IC50 (second compound 3.16 µM): > 10 µM
IC50 (second compound 10 µM): > 10 µM
viability, T/C [1]: 116%
viability, T/C [2]: 112%
viability, T/C [3]: 98%
viability, T/C [4]: 105%
viability, T/C [5]: 91.5%
viability, T/C [6]: 50%
viability, T/C [7]: 94.3%
viability, T/C [8]: 89.4%
viability, T/C [9]: 100%
viability, T/C [10]: 105%
viability, T/C [11]: 105%
viability, T/C [12]: 47%
viability, T/C [13]: 106%
viability, T/C [14]: 108%
viability, T/C [15]: 105%
viability, T/C [16]: 104%
viability, T/C [17]: 88.8%
viability, T/C [18]: 54.3%
viability, T/C [19]: 102%
viability, T/C [20]: 98.5%
viability, T/C [21]: 105%
viability, T/C [22]: 106%
viability, T/C [23]: 106%
viability, T/C [24]: 44.4%
viability, T/C [25]: 103%
viability, T/C [26]: 101%
viability, T/C [27]: 96.7%
viability, T/C [28]: 96%
viability, T/C [29]: 81.9%
viability, T/C [30]: 54.4%
viability, T/C [31]: 99.1%
viability, T/C [32]: 93.5%
viability, T/C [33]: 91.1%
viability, T/C [34]: 86.4%
viability, T/C [35]: 80.4%
viability, T/C [36]: 54%

CNCc1ccc(-c2[nH]c3cc(F)cc4c3c2CCNC4=O)cc1 + Nc1ccc(C#CCN(C(=O)Cc2ncc(C(F)(F)F)cc2C(F)(F)F)c2ccc(F)cc2)nn1
IC50 (second compound 0.0316 µM): > 10 µM
IC50 (second compound 0.1 µM): > 10 µM
IC50 (second compound 0.316 µM): > 10 µM
IC50 (second compound 1 µM): > 10 µM
IC50 (second compound 3.16 µM): > 10 µM
IC50 (second compound 10 µM): > 10 µM
viability, T/C [1]: 108%
viability, T/C [2]: 107%
viability, T/C [3]: 109%
viability, T/C [4]: 122%
viability, T/C [5]: 110%
viability, T/C [6]: 103%
viability, T/C [7]: 115%
viability, T/C [8]: 117%
viability, T/C [9]: 99.8%
viability, T/C [10]: 105%
viability, T/C [11]: 109%
viability, T/C [12]: 109%
viability, T/C [13]: 106%
viability, T/C [14]: 107%
viability, T/C [15]: 96.4%
viability, T/C [16]: 95.7%
viability, T/C [17]: 119%
viability, T/C [18]: 129%
viability, T/C [19]: 113%
viability, T/C [20]: 111%
viability, T/C [21]: 94.4%
viability, T/C [22]: 102%
viability, T/C [23]: 129%
viability, T/C [24]: 114%
viability, T/C [25]: 106%
viability, T/C [26]: 105%
viability, T/C [27]: 110%
viability, T/C [28]: 95.9%
viability, T/C [29]: 124%
viability, T/C [30]: 124%
viability, T/C [31]: 107%
viability, T/C [32]: 96.2%
viability, T/C [33]: 93.1%
viability, T/C [34]: 103%
viability, T/C [35]: 102%
viability, T/C [36]: 94.1%

C=CCn1c(=O)c2cnc(Nc3ccc(N4CCN(C)CC4)cc3)nc2n1-c1cccc(C(C)(C)O)n1 + COC1C(OC(N)=O)C(O)C(Oc2ccc3c(O)c(NC(=O)c4ccc(O)c(CC=C(C)C)c4)c(=O)oc3c2C)OC1(C)C
IC50 (second compound 0.0316 µM): > 1 µM
IC50 (second compound 0.1 µM): > 1 µM
IC50 (second compound 0.316 µM): > 1 µM
IC50 (second compound 1 µM): > 1 µM
IC50 (second compound 3.16 µM): > 1 µM
IC50 (second compound 10 µM): > 1 µM
viability, T/C (second compound 0.0316 µM, first compound 0.00316 µM): 89.1%
viability, T/C (second compound 0.0316 µM, first compound 0.01 µM): 99.6%
viability, T/C [1]: 99.6%
viability, T/C [2]: 112%
viability, T/C [3]: 95.1%
viability, T/C [4]: 74.4%
viability, T/C (second compound 0.1 µM, first compound 0.00316 µM): 116%
viability, T/C (second compound 0.1 µM, first compound 0.01 µM): 97.7%
viability, T/C [7]: 127%
viability, T/C [8]: 122%
viability, T/C [9]: 87.5%
viability, T/C [10]: 64.5%
viability, T/C (second compound 0.316 µM, first compound 0.00316 µM): 105%
viability, T/C (second compound 0.316 µM, first compound 0.01 µM): 99%
viability, T/C [13]: 101%
viability, T/C [14]: 98.6%
viability, T/C [15]: 115%
viability, T/C [16]: 60.5%
viability, T/C (second compound 1 µM, first compound 0.00316 µM): 111%
viability, T/C (second compound 1 µM, first compound 0.01 µM): 96.2%
viability, T/C [19]: 96.4%
viability, T/C [20]: 102%
viability, T/C [21]: 97.9%
viability, T/C [22]: 78.2%
viability, T/C (second compound 3.16 µM, first compound 0.00316 µM): 112%
viability, T/C (second compound 3.16 µM, first compound 0.01 µM): 103%
viability, T/C [25]: 94.9%
viability, T/C [26]: 107%
viability, T/C [27]: 95.3%
viability, T/C [28]: 69.6%
viability, T/C (second compound 10 µM, first compound 0.00316 µM): 104%
viability, T/C (second compound 10 µM, first compound 0.01 µM): 121%
viability, T/C [31]: 115%
viability, T/C [32]: 119%
viability, T/C [33]: 95.2%
viability, T/C [34]: 68.9%

CCc1cc2c(N3CCc4c(cc(Cn5ccnc5)cc4-c4cn(C)nc4C(F)(F)F)C3=O)ccnc2c(OC)n1 + COC1C(OC(N)=O)C(O)C(Oc2ccc3c(O)c(NC(=O)c4ccc(O)c(CC=C(C)C)c4)c(=O)oc3c2C)OC1(C)C
IC50 (second compound 0.0316 µM): > 10 µM
IC50 (second compound 0.1 µM): > 10 µM
IC50 (second compound 0.316 µM): > 10 µM
IC50 (second compound 1 µM): > 10 µM
IC50 (second compound 3.16 µM): > 10 µM
IC50 (second compound 10 µM): > 10 µM
viability, T/C [1]: 115%
viability, T/C [2]: 104%
viability, T/C [3]: 111%
viability, T/C [4]: 116%
viability, T/C [5]: 107%
viability, T/C [6]: 82.2%
viability, T/C [7]: 110%
viability, T/C [8]: 105%
viability, T/C [9]: 101%
viability, T/C [10]: 85.2%
viability, T/C [11]: 92.2%
viability, T/C [12]: 71.3%
viability, T/C [13]: 93%
viability, T/C [14]: 121%
viability, T/C [15]: 101%
viability, T/C [16]: 95.8%
viability, T/C [17]: 101%
viability, T/C [18]: 91.4%
viability, T/C [19]: 107%
viability, T/C [20]: 110%
viability, T/C [21]: 106%
viability, T/C [22]: 106%
viability, T/C [23]: 113%
viability, T/C [24]: 84.7%
viability, T/C [25]: 99.3%
viability, T/C [26]: 101%
viability, T/C [27]: 116%
viability, T/C [28]: 114%
viability, T/C [29]: 92.9%
viability, T/C [30]: 80%
viability, T/C [31]: 120%
viability, T/C [32]: 99.2%
viability, T/C [33]: 111%
viability, T/C [34]: 118%
viability, T/C [35]: 97.5%
viability, T/C [36]: 81.4%
